How the values were obtained:
FaDu [1] = test: Photodynamic cytotoxicity against human FaDu cells assessed as cell growth inhibition upon light irradiation; type: functional, cell-based; conditions: light or radiation study
UMUC3 [2] = test: Photodynamic cytotoxicity against human UMUC3 cells assessed as cell growth inhibition upon light irradiation; type: functional, cell-based; conditions: UMUC3, light or radiation study
UMUC3 [3] = test: Photodynamic cytotoxicity against human UMUC3 cells assessed as cell growth inhibition upon 1 J/cm2 light irradiation; type: functional, cell-based; conditions: UMUC3, light or radiation study
FaDu [4] = test: Photodynamic cytotoxicity against human FaDu cells assessed as cell growth inhibition upon 1 J/cm2 light irradiation; type: functional, cell-based; conditions: light or radiation study
A549 [5] = test: Photodynamic cytotoxicity against human A549 cells assessed as cell growth inhibition upon light irradiation by WST assay; type: functional, cell-based
A549 [6] = test: Cytotoxicity against human A549 cells assessed as cell growth inhibition by WST assay; type: functional, cell-based
NCI-H460 [7] = test: Photodynamic cytotoxicity against human H460M2 cells assessed as cell growth inhibition incubated for 24 hrs followed by medium replacement without compound upon 1 J/cm2 light irradiation and measured after 24 hrs by MTT assay; type: functional, cell-based
HBL-100 [8] = test: Photodynamic cytotoxicity against human HBL-100 cells assessed as cell growth inhibition incubated for 24 hrs by MTT assay; type: functional, cell-based
NCI-H460 [9] = test: Cytotoxicity against human H460M2 cells assessed as cell growth inhibition incubated for 24 hrs by MTT assay; type: functional, cell-based
HeLa [10] = test: Photodynamic cytotoxicity against human HeLa cells assessed as cell growth inhibition incubated for 24 hrs followed by medium replacement without compound upon 1 J/cm2 light irradiation and measured after 24 hrs by MTT assay; type: functional, cell-based
HeLa [11] = test: Cytotoxicity against human HeLa cells assessed as cell growth inhibition incubated for 24 hrs by MTT assay; type: functional, cell-based
HBL-100 [12] = test: Photodynamic cytotoxicity against human HBL-100 cells assessed as cell growth inhibition incubated for 24 hrs followed by medium replacement without compound upon 1 J/cm2 light irradiation and measured after 24 hrs by MTT assay; type: functional, cell-based
HeLa [13] = test: Cytotoxicity against human HeLa cells assessed as cell growth inhibition incubated for […] followed by fresh medium replacement without compound and further incubated for 44 hrs under dark condition by resazurin based fluorimetry; type: functional
HeLa [14] = test: Photodynamic cytotoxicity against human HeLa cells assessed as cell growth inhibition incubated for 4 hrs followed by fresh medium replacement without compound upon 6.95 J/cm2 light irradiation for 15 mins and further incubated for 44 hrs by resazurin based fluorimetry; type: functional; conditions: light or radiation study
A549 [15] = test: Photodynamic cytotoxicity against human A549 cells assessed as cell growth inhibition upon light irradiation; type: functional, cell-based; conditions: A549, light or radiation study
A549 [16] = test: Cytotoxicity against human A549 cells assessed as cell growth inhibition; type: functional, cell-based
[17] = Homo sapiens, A549, light or radiation study

CCCCCCOC(C)C1=C(C)c2cc3nc(c4c5[nH]c(cc6[nH]c(cc1n2)c(C)c6CC)c(C)c5C(=O)C4)[C@@H](CCC(=O)O)[C@@H]3C (stereo partly drawn)
IC50 (FaDu [1]): 43 nM
IC50 (UMUC3 [2]): 68 nM

CCc1c(C)c2cc3nc(cc4nc(c5c6[nH]c(cc1[nH]2)c(C)c6C(=O)C5)[C@@H](CCC(=O)OC)[C@@H]4C)C(C)=C3COCc1cccc(C#Cc2cccc(Nc3ncnc4cc(OCCOC)c(OCCOC)cc34)c2)c1
IC50 (UMUC3 [3]): 76 nM
IC50 (FaDu [4]): 23 nM

C[n+]1ccc(-c2c3nc(c(-c4cc[n+](C)cc4)c4ccc([nH]4)c(-c4cc[n+](C)cc4)c4nc(c(-c5cc[n+](C)cc5)c5ccc2[nH]5)C=C4)C=C3)cc1
IC50 (A549 [5]; [17]): 300 nM
IC50 (A549 [6]; Homo sapiens, A549): > 100000 nM

CCc1c(C)c2cc3nc(cc4nc(c5c6[nH]c(cc1[nH]2)c(C)c6C(=O)C5)[C@@H](CCC(=O)OC)[C@@H]4C)C(C)=C3C(C)OCc1ccc(C#Cc2cccc(Nc3ncnc4cc(OCCOC)c(OCCOC)cc34)c2)cc1 (stereo partly drawn)
IC50 (UMUC3 [3]): 21 nM
IC50 (FaDu [4]): 60 nM

CCc1c(C)c2cc3nc(cc4nc(c5c6[nH]c(cc1[nH]2)c(C)c6C(=O)C5)[C@@H](CCC(=O)O)[C@@H]4C)C(C)=C3C(C)OCc1cccc(C#Cc2cccc(Nc3ncnc4cc(OCCOC)c(OCCOC)cc34)c2)c1 (stereo partly drawn)
IC50 (UMUC3 [3]): 54 nM
IC50 (FaDu [4]): 31 nM

C1=Cc2nc1c(-c1ccncc1)c1ccc([nH]1)c(-c1ccncc1)c1nc(c(-c3ccc(OCc4cn(CCc5nccc6c5[nH]c5ccccc56)nn4)cc3)c3ccc([nH]3)c2-c2ccncc2)C=C1
IC50 (A549 [5]; [17]): 43100 nM
IC50 (A549 [6]; Homo sapiens, A549): > 100000 nM

C[n+]1ccc(-c2c3nc(c(-c4cc[n+](C)cc4)c4ccc([nH]4)c(-c4cc[n+](C)cc4)c4nc(c(-c5ccc(C(=O)NCCOCCOCCNC(=O)CN6CCNCCNCC6)cc5)c5ccc2[nH]5)C=C4)C=C3)cc1
IC50 (NCI-H460 [7]): > 100000 nM
IC50 (HBL-100 [8]): > 100000 nM
IC50 (NCI-H460 [9]): > 100000 nM
IC50 (HeLa [10]): > 100000 nM
IC50 (HeLa [11]): > 100000 nM
IC50 (HBL-100 [12]): > 100000 nM

C1=Cc2nc1c(-c1ccncc1)c1ccc([nH]1)c(-c1ccncc1)c1nc(c(-c3ccncc3)c3ccc([nH]3)c2-c2ccncc2)C=C1
IC50 (HeLa [13]): > 100000 nM
IC50 (HeLa [14]): 5800 nM

C1=Cc2nc1c(-c1ccccc1)c1ccc([nH]1)c(-c1ccccc1)c1nc(c(-c3ccc(OCc4cn(CC[n+]5c6ccccc6cc6[nH]c7ccccc7c65)nn4)cc3)c3ccc([nH]3)c2-c2ccccc2)C=C1
IC50 (A549 [15]): 2500 nM
IC50 (A549 [16]): 33600 nM

CCCCCCOC(C)C1=C(C)c2cc3nc(c4c5[nH]c(cc6[nH]c(cc1n2)c(C)c6CC)c(C)c5C(=O)C4)[C@@H](CCC(=O)NCCCCn1cc(-c2cccc(Nc4ncnc5cc(OCCOC)c(OCCOC)cc45)c2)nn1)[C@@H]3C (stereo partly drawn)
IC50 (UMUC3 [3]): 20 nM
IC50 (FaDu [4]): 18 nM

C[n+]1ccc(-c2c3nc(c(-c4cc[n+](C)cc4)c4ccc([nH]4)c(-c4cc[n+](C)cc4)c4nc(c(-c5ccc(OCc6cn(CCc7c8[nH]c9ccccc9c8cc[n+]7C)nn6)cc5)c5ccc2[nH]5)C=C4)C=C3)cc1
IC50 (A549 [5]; a549): 60 nM
IC50 (A549 [6]; a549): > 100000 nM

CCc1c(C)c2cc3nc(cc4nc(c5c6[nH]c(cc1[nH]2)c(C)c6C(=O)C5)[C@@H](CCC(=O)OC)[C@@H]4C)C(C)=C3C(C)OCc1cccc(C#Cc2cccc(Nc3ncnc4cc(OCCOC)c(OCCOC)cc34)c2)c1 (stereo partly drawn)
IC50 (UMUC3 [3]): 59 nM
IC50 (FaDu [4]): 35 nM
